Where “and” joins values, the source holds several entries; their conditions need not be identical. Identical values can stand only once.
What was measured:
Assay in all cases: Post-emergence/greenhouse herbicidal test
Type in all cases: in vivo
Abutilon theophrasti = conditions: post-emergence, about 3 weeks
Text: (§1) Procarbazone- and flucarbazone-sodium were used as 70 WG formulation. Fenoxaprop-P-ethyl was used in a mixture with mefenpyr-diethyl (75 g of mefenpyr-diethyl/l) as Ralon® Super 69 EW. Cinidon-ethyl and florasulam and iodosufuron in a mixture with mefenpyr-diethyl were used in the form of the finished formulations Lotus® 200 EC, Primus® 50 SC and Hussar® 5 WG (15% mefenpyr-diethyl), respectively. Amicarbazone was used as 70 WG formulation.
(§2) In pre- and post-emergence experiments, the spray liquor is usually admixed with a surfactant (Renex 36), at a concentration of 0.1%.
(§3) Test plants are grown under controlled conditions (temperature and light).
(§4) Following the spray application, the plant containers are kept in a greenhouse under constant light and temperature conditions.
(§5) After about 3 weeks, the degree of damage to the plants is rated in % damage in comparison to the development of the untreated control.
(§6) 0% =no damage (like untreated control)
(§7) 100% =total destruction/damage

Avena fatua = system: Avena fatua
Text: as §1, §2, §3, §4, §5, §6, §7

Cassia tora = system: Cassia tora
Text: as §1, §2, §3, §4, §5, §6, §7

Eriochloa villosa = conditions: post-emergence, about 3 weeks
Text: as §1, §2, §3, §4, §5, §6, §7

Matricaria inodora = conditions: application rate 30 g ai/ha
Text: as §1, §2, §3, §4, §5, §6, §7

Stellaria media = conditions: post-emergence, about 3 weeks
Text: as §1, §2, §3, §4, §5, §6, §7

Viola arvensis = conditions: post-emergence, about 3 weeks
Text: as §1, §2, §3, §4, §5, §6, §7

Xanthium strumarium = conditions: post-emergence, about 3 weeks
Text: as §1, §2, §3, §4, §5, §6, §7

Alopecurus myosuroides = conditions: post-emergence, about 3 weeks
Text: as §1, §2, §3, §4, §5, §6, §7

Bromus secalinus = system: Bromus secalinus
Text: as §1, §2, §3, §4, §5, §6, §7

Cyperus esculentus = conditions: post-emergence, about 3 weeks
Text: as §1, §2, §3, §4, §5, §6, §7

Echinochloa crus-galli = system: Echinochloa crus-galli
Text: as §1, §2, §3, §4, §5, §6, §7

Lolium perenne = conditions: post-emergence, about 3 weeks
Text: as §1, §2, §3, §4, §5, §6, §7

Amaranthus retroflexus = conditions: post-emergence, about 3 weeks
Text: as §1, §2, §3, §4, §5, §6, §7

Chenopodium album = conditions: post-emergence, about 3 weeks
Text: as §1, §2, §3, §4, §5, §6, §7

Datura strumarium = conditions: post-emergence, about 3 weeks
Text: as §1, §2, §3, §4, §5, §6, §7

Galium aparine = conditions: post-emergence, about 3 weeks
Text: as §1, §2, §3, §4, §5, §6, §7

Ipomoea hederacea = conditions: post-emergence, about 3 weeks
Text: as §1, §2, §3, §4, §5, §6, §7

Polygonum convolvolus = system: Polygonum convolvolus
Text: as §1, §2, §3, §4, §5, §6, §7

Solanum nigrum = conditions: post-emergence, about 3 weeks
Text: as §1, §2, §3, §4, §5, §6, §7

Setaria viridis = system: Setaria viridis
[1] = 30 g of ai/ha, post-emergence, about 3 weeks
[2] = 8 g of ai/ha, post-emergence, about 3 weeks
[3] = 15 g of ai/ha, post-emergence, about 3 weeks
[4] = 60 g of ai/ha, post-emergence, about 3 weeks
[5] = 125 g of ai/ha, post-emergence, about 3 weeks
[6] = application rate 2 g ai/ha, iodosulfuron tested as Hussar (iodosulfuron 5% & mefenpyr 15%)
[7] = application rate 4 g ai/ha, iodosulfuron tested as Hussar (iodosulfuron 5% & mefenpyr 15%)
[8] = application rate 8 g ai/ha, iodosulfuron tested as Hussar (iodosulfuron 5% & mefenpyr 15%)

CC(C)c1nn(C(=O)NC(C)(C)C)c(=O)n1N [Amicarbazone, 4-amino-N-(1,1-dimethyl-ethyl)-4,5-dihydro-3-(1-methyl-ethyl)-5-oxo-1H-1,2,4-triazole-1-carboxamide]
Abutilon theophrasti observed (Abutilon theophrasti; 30 g of ai/ha): 80%
Avena fatua observed (Avena fatua; application rate 30 g ai/ha): 0
Cassia tora observed (Cassia tora; [1]): 40%
Eriochloa villosa observed (Eriochloa villosa; 125 g of ai/ha): 70%
Matricaria inodora observed (Matricaria inodora): 60
Stellaria media observed (Stellaria media; 60 g of ai/ha): 80%
Viola arvensis observed (Viola arvensis; 30 g of ai/ha): 70%
Xanthium strumarium observed (Xanthium strumarium; 30 g of ai/ha): 80%

CCOC(=O)C(Cl)=Cc1cc(N2C(=O)C3=C(CCCC3)C2=O)ccc1Cl [Cinidon-ethyl, ethyl 2-chloro-3-[2-chloro-5-(1,3,4,5,6,7-hexahydro-1,3-dioxo-2H-isoindol-2-yl)-phenyl]-2-propanoate]
Alopecurus myosuroides observed (Alopecurus myosuroides; 8 g of ai/ha): 0%
Alopecurus myosuroides observed (Alopecurus myosuroides; 15 g of ai/ha): 0%
Avena fatua observed (Avena fatua; [2]): 0%
Avena fatua observed (Avena fatua; [3]): 10%
Bromus secalinus observed (Bromus secalinus; [2]): 0%
Bromus secalinus observed (Bromus secalinus; [3]): 20%
Cassia tora observed (Cassia tora; [3]): 95%
Cyperus esculentus observed (Cyperus esculentus; 8 g of ai/ha): 0%
Cyperus esculentus observed (Cyperus esculentus; 15 g of ai/ha): 20%
Echinochloa crus-galli observed (Echinochloa crus-galli; [2]): 0%
Echinochloa crus-galli observed (Echinochloa crus-galli; [3]): 0%
Eriochloa villosa observed (Eriochloa villosa; 15 g of ai/ha): 30%
Lolium perenne observed (Lolium perenne; 8 g of ai/ha): 0%
Viola arvensis observed (Viola arvensis; 8 g of ai/ha): 0%
Viola arvensis observed (Viola arvensis; 15 g of ai/ha): 30%

CCOC(=O)[C@@H](C)Oc1ccc(Oc2nc3ccc(Cl)cc3o2)cc1 [Fenoxaprop-P-ethyl, ethyl (R)-2-[4-(6-chloro-benzoxazol-2-yl-oxy)-phenoxy]-propanoate]
Alopecurus myosuroides observed (Alopecurus myosuroides; 15 g of ai/ha): 0%
Alopecurus myosuroides observed (Alopecurus myosuroides; 30 g of ai/ha): 0%
Amaranthus retroflexus observed (Amaranthus retroflexus; 30 g of ai/ha): 0%
Amaranthus retroflexus observed (Amaranthus retroflexus; 60 g of ai/ha): 0%
Bromus secalinus observed (Bromus secalinus; [1]): 0%
Bromus secalinus observed (Bromus secalinus; [4]): 0%
Chenopodium album observed (Chenopodium album; 30 g of ai/ha): 0%
Chenopodium album observed (Chenopodium album; 60 g of ai/ha): 0%
Datura strumarium observed (Datura strumarium; 30 g of ai/ha): 0%
Datura strumarium observed (Datura strumarium; 60 g of ai/ha): 0%
Galium aparine observed (Galium aparine; 15 g of ai/ha): 0%
Galium aparine observed (Galium aparine; 30 g of ai/ha): 0%
Galium aparine observed (Galium aparine; 60 g of ai/ha): 0%
Ipomoea hederacea observed (Ipomoea hederacea; 30 g of ai/ha): 0%
Ipomoea hederacea observed (Ipomoea hederacea; 60 g of ai/ha): 0%
Lolium perenne observed (Lolium perenne; 30 g of ai/ha): 0%
Lolium perenne observed (Lolium perenne; 60 g of ai/ha): 0%
Polygonum convolvolus observed (Polygonum convolvolus; [1]): 0%
Polygonum convolvolus observed (Polygonum convolvolus; [4]): 0%
Solanum nigrum observed (Solanum nigrum; 15 g of ai/ha): 0%
Solanum nigrum observed (Solanum nigrum; 30 g of ai/ha): 0%
Solanum nigrum observed (Solanum nigrum; 60 g of ai/ha): 0%
Stellaria media observed (Stellaria media; 30 g of ai/ha): 0%
Stellaria media observed (Stellaria media; 60 g of ai/ha): 0%
Viola arvensis observed (Viola arvensis; 15 g of ai/ha): 0%
Viola arvensis observed (Viola arvensis; 30 g of ai/ha): 0%
Viola arvensis observed (Viola arvensis; 60 g of ai/ha): 0%
Xanthium strumarium observed (Xanthium strumarium; 30 g of ai/ha): 0%
Xanthium strumarium observed (Xanthium strumarium; 60 g of ai/ha): 0%

CC(C)N(C(=O)COc1nnc(C(F)(F)F)s1)c1ccc(F)cc1 [Flufenacet, N-(4-fluorophenyl)-N-isopropyl-2-(5-trifluoromethyl-1,3,4-thiadiazol-2-yl-oxy)-acetamide]
Amaranthus retroflexus observed (Amaranthus retroflexus; 60 g of ai/ha): 0%
Amaranthus retroflexus observed (Amaranthus retroflexus; 125 g of ai/ha): 0%
Avena fatua observed (Avena fatua; [5]): 70%
Polygonum convolvolus observed (Polygonum convolvolus; [5]): 0%

COC(=O)c1ccc(I)cc1S(=O)(=O)NC(=O)Nc1nc(C)nc(OC)n1.[Na] [Iodosufuron, N-(4-methoxy-6-methyl-1,3,5-triazin-2-yl)-N′-(5-iodo-2-methoxycarbonyl-phenylsulphonyl)-urea sodium salt]
Avena fatua observed (Avena fatua; [2]): 70%
Avena fatua observed (Avena fatua; Table B-62, application rate 2 g ai/ha, iodosulfuron tested as Hussar (iodosulfuron 5% & mefenpyr 15%)): 10
Bromus secalinus observed (Bromus secalinus; [6]): 0
Bromus secalinus observed (Bromus secalinus; [7]): 0
Bromus secalinus observed (Bromus secalinus; [8]): 0
Cassia tora observed (Cassia tora; [8]): 80
Echinochloa crus-galli observed (Echinochloa crus-galli; [6]): 20
Polygonum convolvolus observed (Polygonum convolvolus; [6]): 80
Setaria viridis observed (Setaria viridis; [7]): 0

CCCOc1nn(C(=O)NS(=O)(=O)c2ccccc2C(=O)OC)c(=O)n1C [Procarbazone-sodium, 2-(2-methoxycarbonyl-phenylsulphonylaminocarbonyl)-4-methyl-5-n-propoxy-2,4-dihydro-3H-1,2,4-triazol-3-one]
Abutilon theophrasti observed (Abutilon theophrasti; 60 g of ai/ha): 60%
Alopecurus myosuroides observed (Alopecurus myosuroides; 15 g of ai/ha): 60% and 80%
Alopecurus myosuroides observed (Alopecurus myosuroides; 30 g of ai/ha): 70% and 80%
Alopecurus myosuroides observed (Alopecurus myosuroides; 60 g of ai/ha): 70% and 90%
Amaranthus retroflexus observed (Amaranthus retroflexus; 15 g of ai/ha): 80% and 98%
Amaranthus retroflexus observed (Amaranthus retroflexus; 30 g of ai/ha): 90% and 98%
Amaranthus retroflexus observed (Amaranthus retroflexus; 60 g of ai/ha): 98%
Avena fatua observed (Avena fatua; [3]): 70% and 50% and 80%
Avena fatua observed (Avena fatua; [1]): 90% and 50%
Avena fatua observed (Avena fatua; [4]): 60%
Bromus secalinus observed (Bromus secalinus; [3]): 80% and 70%
Bromus secalinus observed (Bromus secalinus; [1]): 80%
Bromus secalinus observed (Bromus secalinus; [4]): 90%
Bromus secalinus observed (Bromus secalinus; application rate 15 g ai/ha): 90
Bromus secalinus observed (Bromus secalinus; application rate 30 g ai/ha): 90
Cassia tora observed (Cassia tora; [3]): 50%
Cassia tora observed (Cassia tora; [4]): 30% and 50%
Cyperus esculentus observed (Cyperus esculentus; 15 g of ai/ha): 70%
Cyperus esculentus observed (Cyperus esculentus; 30 g of ai/ha): 80%
Echinochloa crus-galli observed (Echinochloa crus-galli; [1]): 90%
Echinochloa crus-galli observed (Echinochloa crus-galli; [4]): 90%
Eriochloa villosa observed (Eriochloa villosa; 15 g of ai/ha): 0%
Galium aparine observed (Galium aparine; 15 g of ai/ha): 20%
Galium aparine observed (Galium aparine; 30 g of ai/ha): 30%
Galium aparine observed (Galium aparine; 60 g of ai/ha): 40%
Ipomoea hederacea observed (Ipomoea hederacea; 15 g of ai/ha): 60%
Ipomoea hederacea observed (Ipomoea hederacea; 30 g of ai/ha): 70%
Ipomoea hederacea observed (Ipomoea hederacea; 60 g of ai/ha): 70%
Lolium perenne observed (Lolium perenne; 15 g of ai/ha): 0%
Lolium perenne observed (Lolium perenne; 30 g of ai/ha): 30% and 20%
Lolium perenne observed (Lolium perenne; 60 g of ai/ha): 50%
Polygonum convolvolus observed (Polygonum convolvolus; [1]): 0%
Polygonum convolvolus observed (Polygonum convolvolus; [4]): 0%
Polygonum convolvolus observed (Polygonum convolvolus; application rate 15 g ai/ha): 0
Polygonum convolvolus observed (Polygonum convolvolus; application rate 30 g ai/ha): 0
Polygonum convolvolus observed (Polygonum convolvolus; application rate 60 g ai/ha): 0
Solanum nigrum observed (Solanum nigrum; 30 g of ai/ha): 70%
Stellaria media observed (Stellaria media; 15 g of ai/ha): 50%
Stellaria media observed (Stellaria media; 30 g of ai/ha): 60%
Stellaria media observed (Stellaria media; 60 g of ai/ha): 70%
Viola arvensis observed (Viola arvensis; 30 g of ai/ha): 50% and 70%
Viola arvensis observed (Viola arvensis; 60 g of ai/ha): 80%
Xanthium strumarium observed (Xanthium strumarium; 15 g of ai/ha): 60%
Xanthium strumarium observed (Xanthium strumarium; 30 g of ai/ha): 70% and 60%
Xanthium strumarium observed (Xanthium strumarium; 60 g of ai/ha): 60%
Setaria viridis observed (Setaria viridis; application rate 15 g ai/ha): 0
Setaria viridis observed (Setaria viridis; application rate 30 g ai/ha): 0
Setaria viridis observed (Setaria viridis; application rate 60 g ai/ha): 20

Reference: patent US20030211942A1, “Aryl sulfonyl amino carbonyl triazole based selective herbicides” (priority 2000, published 2003)
